Laboratory results taken from patent US20230241226A1, “COMPOUNDS FOR TARGETED DEGRADATION OF CARRIER PROTEINS AND USES THEREOF” (CeMM - Forschungszentrum für Molekulare Medizin GmbH, priority 2019, published 2023).

Key:
Format in all cases: cell-based
[1] = target: T1, dTAG-HA SLC1A5 (Homo sapiens, UniProt Q15758+Q96SW2); assay: Targeted degradation of dTAG-tagged SLC1A5 (western blot); conditions: 0.5 µM
T1 construct: expressed in transfected cells; also LOVO, SW620, CAKI, SW480
Experimental: (§1) (C)HAP1 cells expressing dTAG-HA SLC1A5, 2A3, 30A9, 35B2, MTCH2, and 33A1 were treated for 24 hours with 0.5 µM of dTAG7 or dTAG13, as indicated. HAP1 cells expressing dTAG-HA SLC2A1 and 16A1 were treated for 24 hrs with 0.5 µM of dTAG7. HAP1 cell lines expressing dTAG-HA SLC39A7, dTAG-HA SLC4A4, and SLC7A3-dTAG-HA were treated for 48 hrs with 0.5 µM of dTAG13.
SLC1A5, SLC2A1, SLC2A3, SLC16A1, SLC38A1, SLC38A2 were obtained as gateway-compatible pENTR/pDONR vectors from the Harvard PlasmID Repository. SLC39A7 was obtained from Dharmacon, GE Healthcare. The following vectors were synthesized by Genescript: SLC4A4, SLC7A3, SLC38A9, SLC25A1, SLC9A1, SLC9A2, SLC9A3, SLC9A4, SLC9A5, SLC9A6, SLC9A7, SLC9A8, and SLC9B2. […]
(§2) For immunoblotting, whole cell extracts were prepared using RIPA lysis buffer (25 mM Tris/HCl pH 7.6, 150 mM NaCl, 1% NP-40, 1% sodium deoxycholate, 0.1% SDS, EDTA-free protease inhibitor (Roche) and phosphatase inhibitors 2+3 (Sigma- Aldrich)). […] Protein extracts were quantified and normalized using the BCA assay (Thermo Scientific). […]
(§3) SLCs were ectopically expressed as fusions to a mutated FKBP domain, also known as the dTAG system. […]

[2] = target: T2, dTAG-HA SLC2A3 (Homo sapiens, UniProt P11169+Q96SW2); assay: Targeted degradation of dTAG-tagged SLC2A3 (western blot)
T2 construct: expressed in transfected cells
Experimental: as §1
SLC1A5, SLC2A1, SLC2A3, SLC16A1, SLC38A1, SLC38A2 were obtained as gateway-compatible pENTR/pDONR vectors from the Harvard PlasmID Repository. SLC39A7 was obtained from Dharmacon, GE Healthcare. The following vectors were synthesized by Genescript: SLC4A4, SLC7A3, SLC38A9, SLC25A1, SLC9A1, SLC9A2, SLC9A3, SLC9A4, SLC9A5, SLC9A6, SLC9A7, SLC9A8, and SLC9B2. SLC30A9, SLC33A1, SLC35B2, SLC25A26, and MTCH2 were a gift from the RESOLUTE consortium. cDNAs were transferred into gateway-compatible lentiviral expression vectors: pLX305 dTAG vectors (Addgene #91797/8) or pRRL Strep-HA (described previously43, EF1a promotor driven expression) using LR recombination (ThermoFisher Scientific). For the generation of lentiviral stable overexpression cells, HEK293T cells were transfected with psPAX2 (Addgene #12260) and pMD2.G (Addgene #12259) and expression vectors using polyethylenimine (PEI). 12 hours post transfection medium was replaced with fresh medium. The medium, containing the virus, was harvested 48 hours later, filtered (0.45 µm), supplemented with 5 µg/ml Polybrene (Hexadimethrine bromide, Sigma) and added to target cells. […]
as §2, §3

[3] = target: T3, dTAG-HA SLC38A9 (Homo sapiens, UniProt Q8NBW4+Q96SW2); assay: Targeted degradation of dTAG-tagged SLC38A9 (western blot)
T3 construct: expressed in transfected cells
Experimental: (A) HAP1 cells expressing dTAG-HA SLC38A9, 38A2, or 38A1 were treated with 0.5 µM dTAG13 for 16, 24 or 48 hours.
SLC1A5, SLC2A1, SLC2A3, SLC16A1, SLC38A1, SLC38A2 were obtained as gateway-compatible pENTR/pDONR vectors from the Harvard PlasmID Repository. SLC39A7 was obtained from Dharmacon, GE Healthcare. The following vectors were synthesized by Genescript: SLC4A4, SLC7A3, SLC38A9, SLC25A1, SLC9A1, SLC9A2, SLC9A3, SLC9A4, SLC9A5, SLC9A6, SLC9A7, SLC9A8, and SLC9B2. SLC30A9, SLC33A1, SLC35B2, SLC25A26, and MTCH2 were a gift from the RESOLUTE consortium. cDNAs were transferred into gateway-compatible lentiviral expression vectors: pLX305 dTAG vectors (Addgene #91797/8) or pRRL Strep-HA (described previously43, EF1a promotor driven expression) using LR recombination (ThermoFisher Scientific). […]
as §2
SLCs were ectopically expressed as fusions to a mutated FKBP domain, also known as the dTAG system. […] Each of the tested SLCs was stably expressed in HAP1 cells, and subcellular localization was assessed by immunofluorescence microscopy (FIG. 1B). […]

T2 sequence (P11169 with tags, fused parts or gaps): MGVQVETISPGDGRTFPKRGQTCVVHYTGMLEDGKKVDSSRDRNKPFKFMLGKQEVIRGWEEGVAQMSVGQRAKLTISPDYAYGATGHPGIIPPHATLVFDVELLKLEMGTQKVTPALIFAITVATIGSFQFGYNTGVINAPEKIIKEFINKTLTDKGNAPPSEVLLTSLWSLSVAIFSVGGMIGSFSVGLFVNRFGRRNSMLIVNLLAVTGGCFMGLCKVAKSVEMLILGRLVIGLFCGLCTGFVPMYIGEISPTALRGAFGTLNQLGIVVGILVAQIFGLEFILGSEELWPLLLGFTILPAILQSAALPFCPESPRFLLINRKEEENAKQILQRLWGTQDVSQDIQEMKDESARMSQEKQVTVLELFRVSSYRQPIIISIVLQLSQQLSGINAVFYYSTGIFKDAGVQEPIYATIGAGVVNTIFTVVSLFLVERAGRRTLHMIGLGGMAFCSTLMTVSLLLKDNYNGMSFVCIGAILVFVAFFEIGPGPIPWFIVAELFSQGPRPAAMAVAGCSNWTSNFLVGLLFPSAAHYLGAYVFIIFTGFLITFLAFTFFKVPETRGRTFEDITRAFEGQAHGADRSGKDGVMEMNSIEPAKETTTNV
T2 sequence (Q96SW2 whole entry): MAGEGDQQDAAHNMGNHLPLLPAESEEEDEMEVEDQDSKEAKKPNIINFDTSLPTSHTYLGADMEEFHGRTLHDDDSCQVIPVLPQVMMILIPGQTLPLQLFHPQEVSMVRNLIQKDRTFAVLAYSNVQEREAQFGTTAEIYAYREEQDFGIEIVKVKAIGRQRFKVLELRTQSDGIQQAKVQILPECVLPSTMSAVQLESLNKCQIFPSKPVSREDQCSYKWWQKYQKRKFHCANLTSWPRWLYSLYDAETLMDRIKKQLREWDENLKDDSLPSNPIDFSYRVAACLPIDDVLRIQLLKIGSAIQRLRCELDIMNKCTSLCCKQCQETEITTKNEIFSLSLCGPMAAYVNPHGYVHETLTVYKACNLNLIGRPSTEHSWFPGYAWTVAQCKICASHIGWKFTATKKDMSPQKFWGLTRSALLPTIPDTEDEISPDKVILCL
T2 sequence (Q16531 whole entry partner): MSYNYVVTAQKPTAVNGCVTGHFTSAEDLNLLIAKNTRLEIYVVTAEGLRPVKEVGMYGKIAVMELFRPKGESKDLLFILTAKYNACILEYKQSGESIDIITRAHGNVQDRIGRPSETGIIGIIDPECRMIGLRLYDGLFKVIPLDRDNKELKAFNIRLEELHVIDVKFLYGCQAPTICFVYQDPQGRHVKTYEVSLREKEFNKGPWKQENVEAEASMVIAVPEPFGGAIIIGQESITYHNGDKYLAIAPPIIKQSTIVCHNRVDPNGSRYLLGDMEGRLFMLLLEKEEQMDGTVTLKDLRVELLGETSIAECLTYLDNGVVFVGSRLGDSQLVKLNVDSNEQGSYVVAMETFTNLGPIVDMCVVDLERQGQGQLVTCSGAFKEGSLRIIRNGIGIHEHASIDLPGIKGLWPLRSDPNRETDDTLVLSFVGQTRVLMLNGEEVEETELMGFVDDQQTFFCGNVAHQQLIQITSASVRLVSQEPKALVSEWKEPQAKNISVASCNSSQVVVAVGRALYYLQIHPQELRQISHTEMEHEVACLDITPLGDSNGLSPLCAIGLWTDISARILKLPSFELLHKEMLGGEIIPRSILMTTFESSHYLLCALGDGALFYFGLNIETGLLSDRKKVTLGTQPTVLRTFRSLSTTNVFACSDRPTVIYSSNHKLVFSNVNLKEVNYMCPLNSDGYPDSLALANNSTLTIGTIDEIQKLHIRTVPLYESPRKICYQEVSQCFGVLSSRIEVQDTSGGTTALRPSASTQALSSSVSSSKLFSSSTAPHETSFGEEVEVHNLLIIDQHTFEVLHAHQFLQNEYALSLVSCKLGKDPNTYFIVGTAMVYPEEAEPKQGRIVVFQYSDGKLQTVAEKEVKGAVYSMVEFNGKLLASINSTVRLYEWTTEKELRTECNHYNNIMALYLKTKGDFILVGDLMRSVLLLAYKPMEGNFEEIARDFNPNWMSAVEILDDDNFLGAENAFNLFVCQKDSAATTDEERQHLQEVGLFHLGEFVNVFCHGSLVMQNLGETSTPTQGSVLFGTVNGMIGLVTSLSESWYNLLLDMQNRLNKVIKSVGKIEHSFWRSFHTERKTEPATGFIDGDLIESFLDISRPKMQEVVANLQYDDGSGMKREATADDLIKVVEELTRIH
T3 sequence (Q8NBW4 with tags, fused parts or gaps): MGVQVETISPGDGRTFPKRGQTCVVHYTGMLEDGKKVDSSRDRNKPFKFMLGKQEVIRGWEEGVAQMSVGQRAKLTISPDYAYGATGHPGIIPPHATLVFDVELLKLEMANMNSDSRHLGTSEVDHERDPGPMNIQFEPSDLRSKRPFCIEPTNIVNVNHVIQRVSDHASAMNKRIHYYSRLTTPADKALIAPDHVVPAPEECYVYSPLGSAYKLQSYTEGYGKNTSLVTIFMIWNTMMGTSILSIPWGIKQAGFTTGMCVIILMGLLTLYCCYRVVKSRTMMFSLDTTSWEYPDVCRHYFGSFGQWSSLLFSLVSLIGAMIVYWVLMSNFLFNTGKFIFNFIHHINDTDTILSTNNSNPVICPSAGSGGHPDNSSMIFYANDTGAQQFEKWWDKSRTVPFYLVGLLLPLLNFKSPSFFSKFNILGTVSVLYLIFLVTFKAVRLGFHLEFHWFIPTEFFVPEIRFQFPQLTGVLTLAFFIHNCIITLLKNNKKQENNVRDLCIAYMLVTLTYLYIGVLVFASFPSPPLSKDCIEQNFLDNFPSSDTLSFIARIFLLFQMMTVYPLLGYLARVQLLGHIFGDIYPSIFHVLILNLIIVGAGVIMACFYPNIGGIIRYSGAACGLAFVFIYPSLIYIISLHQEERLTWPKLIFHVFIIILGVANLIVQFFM
T3 sequence (Q96SW2 whole entry): as the sequence (Q96SW2 whole entry) above
T3 sequence (Q16531 whole entry partner): as the sequence (Q16531 whole entry partner) above
T1 sequence (Q15758 with tags, fused parts or gaps): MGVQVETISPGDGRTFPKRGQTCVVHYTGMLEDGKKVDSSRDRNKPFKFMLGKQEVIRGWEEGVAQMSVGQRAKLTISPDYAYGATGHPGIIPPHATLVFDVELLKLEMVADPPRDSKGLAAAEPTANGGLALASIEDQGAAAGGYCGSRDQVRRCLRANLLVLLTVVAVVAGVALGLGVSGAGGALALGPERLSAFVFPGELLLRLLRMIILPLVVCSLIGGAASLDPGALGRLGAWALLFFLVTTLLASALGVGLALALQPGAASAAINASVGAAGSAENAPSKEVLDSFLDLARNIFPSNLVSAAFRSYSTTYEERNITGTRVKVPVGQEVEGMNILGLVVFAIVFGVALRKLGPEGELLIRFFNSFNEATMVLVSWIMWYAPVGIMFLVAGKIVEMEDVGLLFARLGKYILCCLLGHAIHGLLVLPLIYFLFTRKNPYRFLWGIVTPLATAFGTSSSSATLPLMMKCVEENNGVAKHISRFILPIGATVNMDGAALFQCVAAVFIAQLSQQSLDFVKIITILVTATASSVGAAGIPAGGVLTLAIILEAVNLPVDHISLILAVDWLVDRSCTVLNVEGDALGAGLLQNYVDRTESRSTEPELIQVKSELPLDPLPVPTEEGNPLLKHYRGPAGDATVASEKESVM
T1 sequence (Q96SW2 whole entry): as the sequence (Q96SW2 whole entry) above
T1 sequence (Q16531 whole entry partner): as the sequence (Q16531 whole entry partner) above

| initiation of degradation (time course) ([1]; HAP1, dTAG-HA SLC1A5) [h] | initiation of degradation (time course) ([2]; HAP1, dTAG-HA SLC2A3, 0.5 µM) [h] | reversibility of degradation of the target SLC ([3]; HAP1, 0.5 µM, 24, 48 or 72 hours) | Structure (SMILES) | degradation of dTAG-HA SLC1A5 ([1]; LOVO, SW620, CAKI and SW480 cell lines, 48 hours) | degradation of dTAG-HA SLC2A3 ([2]; HAP1, LS180 and HCT15 cells, 0.5 µM, 72 hours) | degradation of SLC2A3 tagged on the N- or C-terminus with dTAG-HA ([2]; two HAP1 cell lines, 24 hours) | degradation of the target SLC ([3]; HAP1, 0.5 µM, 16, 24 or 48 hours) |
| --- | --- | --- | --- | --- | --- | --- | --- |
| ≤ 6 | ≤ 6 | reversible degradation | CC[C@H](C(=O)N1CCCC[C@H]1C(=O)O[C@H](CCc1ccc(OC)c(OC)c1)c1ccccc1OCC(=O)NCCCOCCOCCOCCCNC(=O)COc1cccc2c1C(=O)N(C1CCC(=O)NC1=O)C2=O)c1cc(OC)c(OC)c(OC)c1 (stereo partly shown) [dTAG7] | – | – | – | – |
| – | – | – | CC[C@H](C(=O)N1CCCC[C@H]1C(=O)O[C@H](CCc1ccc(OC)c(OC)c1)c1ccccc1OCC(=O)NCCCCCCOc1cccc2c1C(=O)N(C1CCC(=O)NC1=O)C2=O)c1cc(OC)c(OC)c(OC)c1 (stereo partly shown) [dTAG13] | degradation was observed | completely degraded | degraded in both | Near-complete degradation |
